Literature values in US9163009B2, “Salts of raltegravir” (priority 2011, dated 2015).

What was measured:
[1] = in vivo
[2] = water

For `Cc1nnc(C(=O)NC(C)(C)c2nc(C(=O)NCc3ccc(F)cc3)c([O-])c(=O)n2C)o1.[K+]` [Form 1], the bioavailability over raltegravir [1] is listed as “superior bioavailability”.

For `Cc1nnc(C(=O)NC(C)(C)c2nc(C(=O)NCc3ccc(F)cc3)c(O)c(=O)n2C)o1` [Raltegravir, N-(4-fluorobenzyl)-5-hydroxy-1-methyl-2-(1-methyl-1-{[(5-methyl-1,3,4-oxadiazol-2-yl)carbonyl]amino}ethyl)-6-oxo-1,6-dihydropyrimidine-4-carboxamide], the aqueous solubility [2] is listed as “poor”.

In the case of `Cc1nnc(C(=O)NC(C)(C)c2nc(C(=O)NCc3ccc(F)cc3)c([O-])c(=O)n2C)o1.[K+]` [potassium salt of raltegravir], the aqueous solubility [2] is given as “significantly more soluble”.
